Reference: paper PMC11278233, “The Composition of Triterpene Glycosides in the Sea Cucumber Psolus peronii: Anticancer Activity of the Glycosides against Three Human Breast Cancer Cell Lines and Quantitative Structure–Activity Relationships (QSAR)” (Marine Drugs, 2024)
Where two headings read alike, the source gives them in different places.

Key:
[1] = test system: human erythrocytes; assay: Hemolytic activity; assay type: cell-based; conditions: for IC50: Erythrocyte, 1 h at 37 °C, lysis of 50% of erythrocytes
Protocol: A total of 450 g of human blood (B(III) Rh+) was used to obtain erythrocytes by centrifuging it three times for 5 min with phosphate-buffered saline (PBS) (pH 7.4) at 4 °C on the centrifuge LABOFUGE 400R (Heraeus, Hanau, Germany). Ice-cold PBS (pH 7.4) was used for resuspension of the erythrocyte residue to a final optical density of 1.5 at 700 nm, which was kept on ice. Then, 20 µL of the tested compound solutions was added to 180 µL of the erythrocyte suspension in V-bottom 96-well plates and exposed for 1 h at 37 °C. The layers were separated by centrifugation at 900 g for 10 min on the laboratory centrifuge LMC-3000 (Biosan, Riga, Latvia). A total of 100 µL of the supernatant was carefully decanted and transferred into a new flat plate. The values of erythrocyte lysis were measured on a microplate photometer Multiskan FC (Thermo Fisher Scientific, Waltham, MA, USA) at λ = 570 nm as the hemoglobin concentration in the supernatant. […] All the experiments were carried out in triple repetitions; p ≤ 0.05.

[2] = test system: triple-negative human breast cancer cell line MDA-MB-231; assay: cells; assay type: cell-based; conditions: for Selectivity Index MDA-MB-231: ratio of IC50 for healthy (MCF-10A) and cancer cells
[3] = test system: human breast cancer cell line MCF-7; assay: cells; assay type: cell-based; conditions: for Selectivity Index MCF-7: ratio of IC50 for healthy (MCF-10A) and cancer cells
[4] = in vitro; assay type: cell-based, human; conditions: human
[5] = test system: human breast cancer cell line T-47D; assay: cells; assay type: cell-based; conditions: for Selectivity Index T-47D: ratio of IC50 for healthy (MCF-10A) and cancer cells
[6] = test system: MCF-7 cells; assay: Colonogenic (colony formation) assay, MCF-7; assay type: cell-based; conditions: Homo sapiens, MCF7, 336 h, 14 days
Protocol: (§1) The cancer cells (MDA-MB-231, MCF-7 and T-47D lines) were cultured on 6-well plates at a density of 1 × 10^3 per well in control media (MEM media, 10% FBS, 10,000 U/mL of penicillin and […] of streptomycin) or in media supplemented with different concentrations of the glycosides. The cells were incubated for 14 days at 37 °C in a 5% CO2 humidified incubator. Then, the colonies were fixed with methanol (25 min), stained with a 0.5% solution of crystal violet (25 min), washed with H2O and dried in air. Counting of the grown colonies was carried out using a BIO-PRINT-Cx4 Edge-Fixed Pad-Container (Vilber, Collegien, France) device and using the software Bio-Vision SOFTWARE User and service manual-v18.01 (Vilber, Collegien, France). The results are presented as % of colony inhibition in relation to the control.

[7] = test system: MCF-7 cells; assay: Wound healing (scratch) assay, MCF-7; assay type: cell-based, human; conditions: 1 and 2 μM, within 48 h, control migrated by 84.60 ± 2.12%
Protocol: (§2) To analyze the influence of the tested compounds on tumor cell migration, MCF-7 and MDA-MB-231 (5 × 10^5) cells attached to the plate’s plastic bottom were separated using a silicone insert from special migration plates (Culture-insert 2Well 24, ibiTreat). When the insert was removed, a gap of […] (according to the manufacturer’s data) between the cells was left. After 24 h, the cells were washed twice with PBS to remove cell debris and floating cells, treated with 1 and 2 μM of psolusosides A (2) and L (6) and placed in the real-time live cell imaging system Juli Stage (NanoEntek, Seoul, South Korea). Cells treated with the culture medium only were used as the control. The cell migration was analyzed in real time (15 min for each cycle). For the MDA-MB-231 cells, observations were carried out for 12 h (until complete healing of the wound area in the control); for MCF-7 cells, this time was 48 h. The results were processed using the program Juli^TM Stat (NanoEntek, South Korea).

[8] = test system: MDA-MB-231 cells; assay: Colonogenic (colony formation) assay, MDA-MB-231; assay type: cell-based; conditions: Homo sapiens, 336 h, 14 days, read-out: inhibition of the growth of colonies
Protocol: as §1

[9] = test system: non-transformed epithelial cells of the mammary gland MCF-10A; assay: in vitro; assay type: cell-based, human
[10] = test system: MDA-MB-231 cells; assay: Wound healing (scratch) assay, MDA-MB-231; assay type: cell-based, human; conditions: 2 μM, within 12 h, control 99.83 ± 0.08%
Protocol: as §2

[11] = Homo sapiens, MDA-MB-231, 24 h, read-out: Cytotoxicity, IC50 µM MDA-MD-231
[12] = Homo sapiens, MCF7, 24 h, read-out: Cytotoxicity, IC50 µM MCF-7
[13] = Homo sapiens, T47D, 24 h, read-out: Cytotoxicity, IC50 µM T-47D

For `C=C(C)CCC[C@]1(C)OC(=O)[C@]23CC[C@@H]4C(=CC[C@H]5C(C)(C)[C@@H](O[C@@H]6OC[C@@H](O[C@@H]7O[C@H](CO)[C@@H](O)[C@H](O)[C@H]7OS(=O)(=O)[O-])[C@H](O)[C@H]6O[C@@H]6O[C@H](CO)[C@@H](O[C@@H]7O[C@H](COS(=O)(=O)[O-])[C@@H](O)[C@H](O)[C@H]7O)[C@H](O)[C@H]6O)CC[C@]45C)[C@]2(C)CC(=O)[C@@H]31.[Na+].[Na+]` [peronioside A (1), 3β-O-{6-O-sodium-sulfate-β-D-glucopyranosyl-(1→4)-β-D-glucopyranosyl-(1→2)-[2-O-sodium-sulfate-β-D-glucopyranosyl-(1→4)]-β-D-xylopyranosyl}-16-oxoholosta-7,25-diene], the “hemolytic activity (result in words)” value [1] was “moderate hemolytic activity”, the IC50 [1] was 30.8 ± 1.01 µM and the IC50 [2, 11] was over 50 µM. For the same molecule, the IC50 [3, 12] was over 50 µM, the IC50 at 24 h [4] was over 50 µM and the IC50 [5, 13] was over 50 µM.

With `C=C(C)CCC[C@]1(C)OC(=O)[C@]23CC=C4[C@@H](CC[C@H]5C(C)(C)[C@@H](O[C@@H]6OC[C@@H](O)[C@H](O)[C@H]6O[C@@H]6O[C@H](C)[C@@H](O[C@@H]7O[C@H](COS(=O)(=O)[O-])[C@@H](O)[C@H](O[C@@H]8O[C@H](COS(=O)(=O)[O-])[C@@H](O)[C@H](OC)[C@H]8O)[C@H]7O)[C@H](O)[C@H]6O)CC[C@]45C)[C@]2(C)CC(=O)[C@@H]31.[Na+].[Na+]` [psolusoside A (2), psolusoside A] the inhibition at 1 µM ([6]; 1 μM) was 33.8 ± 2.64%, the inhibition at 2 µM ([6]; 2 μM) was 54.9 ± 1.92% and the inhibition at 5 µM ([6]; 5 μM) was 96.88 ± 0.96%. It also gave an IC50 [1] of 1.05 ± 0.12 µM, an IC50 [2, 11] of 6.09 ± 0.87 µM and an IC50 ([2]; Homo sapiens, MDA-MB-231, MTT assay, 48 h incubation, read-out: IC50 against MDA-MB-231 cells (antiproliferative effect)) of 3.87 ± 0.38 µM. For the same molecule, the IC50 ([2]; Homo sapiens, MDA-MB-231, MTT assay, 72 h incubation, read-out: IC50 against MDA-MB-231 cells (antiproliferative effect)) was 3.27 ± 0.27 µM, the “Selectivity Index MDA-MB-231” value ([2]; 24 h of exposition) was 8.21 and the “Selectivity Index MDA-MB-231” value ([2]; 48 h of exposition) was 2.18. The “Selectivity Index MDA-MB-231” value ([2]; 72 h of exposition) was 2.09, the “reduction of the migration of cells to the scratch area” value [7] was 33–42% and the inhibition at 0.5 µM ([8]; 0.5 μM) was 40.6 ± 5.62%. For the same molecule, the inhibition at 1 µM ([8]; 1 μM) was 88.76 ± 0.81%, the IC50 [3, 12] was 11.2 ± 0.4 µM and the “Selectivity Index MCF-7” value ([3]; 24 h of exposition) was 4.47. The “Selectivity Index MCF-7” value ([3]; 48 h of exposition) was 1.84, the “Selectivity Index MCF-7” value ([3]; 72 h of exposition) was 0.59 and the “cytotoxicity to non-transformed MCF-10A cells (result in words)” value [9] was “not cytotoxic”. The IC50 at 24 h [4] was over 50 µM, the “overgrowth of the wound area (migration)” value [10] was 30.01 ± 0.16% and the IC50 [5, 13] was 9.52 ± 0.13 µM. The “Selectivity Index T-47D” value ([5]; 24 h of exposition) was 5.25, the “Selectivity Index T-47D” value ([5]; 48 h of exposition) was 0.86 and the “Selectivity Index T-47D” value ([5]; 72 h of exposition) was 0.76.

In the case of `C=C(C)CCC[C@](C)(OC(C)=O)[C@H]1[C@@H]2C[C@@]3(C)C4=CC[C@H]5C(C)(C)[C@@H](O[C@@H]6OC[C@@H](O[C@@H]7O[C@H](CO)[C@@H](O)[C@H](O)[C@H]7OS(=O)(=O)[O-])[C@H](O)[C@H]6O[C@@H]6O[C@H](CO)[C@@H](O[C@@H]7O[C@H](COS(=O)(=O)[O-])[C@@H](O)[C@H](O)[C@H]7O)[C@H](O)[C@H]6O)CC[C@]5(C)C4CC[C@]13C(=O)O2.[Na+].[Na+]` (stereo partly drawn) [psolusoside B (3), psolusoside B], the “hemolytic activity (result in words)” value [1] is reported as “almost not active”, the IC50 [1] is reported as 74.6 ± 1.21 µM and the IC50 [2, 11] is reported as over 50 µM. The IC50 [3, 12] was over 50 µM, the IC50 at 24 h [4] was over 50 µM and the IC50 [5, 13] was over 50 µM.

`C=C(C)CCC[C@]1(C)OC(=O)[C@]23CC=C4[C@@H](CC[C@H]5C(C)(C)[C@@H](O[C@@H]6OC[C@@H](O)[C@H](O)[C@H]6O[C@@H]6O[C@H](CO)[C@@H](O[C@@H]7O[C@H](COS(=O)(=O)O)[C@@H](O)[C@H](O[C@@H]8O[C@H](COS(=O)(=O)O)[C@@H](O)[C@H](OC)[C@H]8O)[C@H]7O)[C@H](O)[C@H]6O)CC[C@]45C)[C@]2(C)CC(=O)[C@@H]31` [psolusoside G (4), psolusoside G] gave an IC50 [1] of 2.7 ± 0.09 µM, an IC50 [2, 11] of 11 ± 0.36 µM and an IC50 [3, 12] of 11.4 ± 0.36 µM. The IC50 at 24 h [4] was over 50 µM and the IC50 [5, 13] was 16 ± 1.17 µM.

`C=C(C)CCC[C@]1(C)OC(=O)[C@]23CCC4C(=CC[C@H]5C(C)(C)[C@@H](O[C@@H]6OC[C@@H](O[C@@H]7O[C@H](COS(=O)(=O)O)[C@@H](O)[C@H](O)[C@H]7O)[C@H](O)[C@H]6O[C@@H]6OC[C@@H](O[C@@H]7O[C@H](COS(=O)(=O)O)[C@@H](O)[C@H](O)[C@H]7O)[C@H](O)[C@H]6O)CC[C@]45C)[C@]2(C)C[C@H](OC(C)=O)[C@@H]31` (stereo partly drawn) [psolusoside I (5), psolusoside I] showed an IC50 [1] of 8.49 ± 0.49 µM, an IC50 [2, 11] of 33.1 ± 0.85 µM and an IC50 [3, 12] of over 50 µM. For the same molecule, the IC50 at 24 h [4] was over 50 µM and the IC50 [5, 13] was 19.6 ± 0.61 µM.

In the case of `C=C(C)CCC[C@]1(C)OC(=O)[C@]23CC=C4[C@@H](CC[C@H]5C(C)(C)[C@@H](O[C@@H]6OC[C@@H](O[C@@H]7O[C@H](COS(=O)(=O)O)[C@@H](O)[C@H](O)[C@H]7O)[C@H](O)[C@H]6O[C@@H]6O[C@H](CO)[C@@H](O[C@@H]7O[C@H](COS(=O)(=O)O)[C@@H](O)[C@H](O[C@@H]8O[C@H](COS(=O)(=O)O)[C@@H](O)[C@H](OC)[C@H]8O)[C@H]7O)[C@H](O)[C@H]6O)CC[C@]45C)[C@]2(C)CC(=O)[C@@H]31` [psolusoside N (7), psolusoside N], the IC50 [2] is reported as 39.3 ± 2.89 µM, the IC50 [3] is reported as over 50 µM and the IC50 [9] is reported as over 50 µM. For the same molecule, the IC50 [5] was over 50 µM.

In the case of `C=C(C)CCC[C@]1(C)OC(=O)[C@]23CC=C4[C@@H](CC[C@H]5C(C)(C)[C@@H](O[C@@H]6OC[C@@H](O[C@@H]7O[C@H](COS(=O)(=O)O)[C@@H](OS(=O)(=O)O)[C@H](O)[C@H]7O)[C@H](O)[C@H]6O[C@@H]6O[C@H](C)[C@@H](O[C@@H]7O[C@H](COS(=O)(=O)O)[C@@H](O)[C@H](O[C@@H]8O[C@H](COS(=O)(=O)O)[C@@H](O)[C@H](OC)[C@H]8O)[C@H]7O)[C@H](O)[C@H]6O)CC[C@]45C)[C@]2(C)CC(=O)[C@@H]31` [psolusoside P (8), psolusoside P], the IC50 [2] is reported as 33.3 ± 1.31 µM, the IC50 [3] is reported as over 50 µM and the IC50 [9] is reported as over 50 µM. The IC50 [5] was 37.1 ± 0.83 µM.
